One series concerns breast carcinoma. Particulars: cited from earlier work; for percent of the rats developed cancer in 7 months / percent of the rats developed cancer in one year: rats treated with drug and a carcinogen; for percent of the rats developed cancer in 7 months: incidence at 7 months; for percent of the rats developed cancer in one year: incidence at one year; for lifetime effect in reducing the appearance of breast carcinoma: treated rats compared to other rats receiving carcinogen at the same time.

For series [1] the following is noted: in animals; cited from earlier work.
Another series relates to mammary carcinoma. The series can be described thus: Anti-mammary carcinogenic activity in female rats fed DMBA, hormone given by pellet or minipump. Format: in vivo, Sprague-Dawley rats. Particulars: doses that do not have undesirable side effects. As for the experimental part:
In tests for anti-mammary carcinogenic activity following the feeding of carcinogen to mammals, ten different estrogenic compounds were implanted in female rats fed a carcinogen. The incidence of breast cancer for each compound was determined. Rats receiving only the carcinogen were used as controls. Ethynyl estriol was obtained from Eli Lilly, Inc., Greenfield, Indiana; the other estrogens were obtained from Sigma, Inc., St. Louis, Missouri, or Steraloids, Inc., Wilton, New Hampshire.
In all of the tests, intact female Sprague-Dawley rats, obtained from Sasco, Inc., Omaha, Nebraska, at 50 to 55 days of age were used.
They were: (1) randomized upon receipt; (2) housed individually in suspended cages; (3) fed Purina Lab Chow and distilled water; and (4) the temperature was maintained within 22-23 degrees and 40-50 percent relative humidity. […]
Rats free of neoplasms were followed for one year. […] Significant differences in cancer incidence between treated and controlled groups were determined.
The differences in cancer incidence between treated and controlled groups in each experiment were determined by X2 using the Yate's correction. […] The significance of difference in mammary-carcinoma-free survival in rate-days was determined for these groups at 210 days after DMBA administration using the Mann-Whitney U Test. […]

For series [2], the system named is breast cancers induced by a carcinogenic chemical. Particulars: cited from earlier work.
For series [3] the following is noted: in vitro by tissues; cited from earlier work.

For the compound `C#C[C@]1(O)CC[C@H]2[C@@H]3CCc4cc(O)ccc4[C@H]3CC[C@@]21C` [17 alpha ethynyl estradiol 17 beta], in the series on breast carcinoma, the “percent of the rats developed cancer in 7 months” value (from here on “percent … in 7 months”) is 90% and the “percent of the rats developed cancer in one year” value (“percent … in one year” below) is recorded as 100%. With `C#C[C@]1(O)CC[C@H]2[C@@H]3CCc4cc(O)ccc4[C@H]3[C@@H](OC)C[C@@]21C` [11 beta methoxy 17 alpha ethynyl estradiol 17 beta], the carcinogenicity entry in series [1] is recorded as “carcinogenic in animals”. In the case of `C#C[C@]1(O)[C@H](O)C[C@H]2[C@@H]3CCc4cc(O)ccc4[C@H]3CC[C@@]21C` [17 alpha ethynyl estriol], the “risk of mammary carcinoma” value in the series on mammary carcinoma is on record as “reduce the risk of mammary carcinoma”. As to `C[C@]12CC[C@@H]3c4ccc(O)cc4CC[C@H]3[C@@H]1C[C@@H](O)[C@@H]2O` [estriol], the “inhibiting the development of breast cancers” value in series [2] is given as “moderately effective”. In the series with breast carcinoma, the “percent … in 7 months” value is given as 26% and the “percent … in one year” value was 63%. Turning to `CC/C(=C(/CC)c1ccc(O)cc1)c1ccc(O)cc1` [diethylstilbestrol], in the series with breast carcinoma, the “percent … in 7 months” value was 88% and the “percent … in one year” value is listed as 100%.

For the compound `CC/C(=C(\c1ccccc1)c1ccc(OCCN(C)C)cc1)c1ccccc1` [tamoxifen], in the series with breast carcinoma, the “percent … in 7 months” value is listed as 78% and the “percent … in one year” value is 89%. Take `COc1ccc2c(c1)CC[C@@H]1[C@@H]2CC[C@]2(C)[C@@H](O)[C@H](O)C[C@@H]12` [estriol 3-methyl ether]: the “lifetime effect in reducing the appearance of breast carcinoma” value in the series with breast carcinoma was 30-50%. As for `C[C@]12CCc3c(ccc4cc(O)ccc34)[C@@H]1CCC2=O` [d-equilenin], in series [3], the position of oxidation entry was “almost exclusively at the C4 (R1) position”. Regarding `C[C@]12CC[C@@H]3c4cc(O)c(O)cc4CC[C@H]3[C@@H]1CC[C@@H]2O` [2-OH estradiol 17 beta], in the series on breast carcinoma, the “percent … in 7 months” value was 78% and the “percent … in one year” value is 94%. For the compound `C[C@]12CC[C@@H]3c4ccc(O)cc4C(=O)C[C@H]3[C@@H]1CC[C@@H]2O` [6 keto estradiol, 6-keto estradiol 17 beta], in the series on breast carcinoma, the “percent … in 7 months” value was 31%, the “percent … in one year” value is 61% and the “lifetime effect in reducing the appearance of breast carcinoma” value is listed as 30-50%.

These data come from patent publication EP0240717A2, “Prevention of mammary carcinoma” (The Board of Regents of the University of Nebraska, priority 1986, dated 1987).
